# Patent US5294724A, “4-hydroxytetrahydropyran-2-ones and the corresponding dihydroxycarboxylic acid derivatives, salts and esters and a process for their preparation” (priority 1989, dated 1994)
# Assays:
# HEP G2 cells = assay: Inhibition of cholesterol biosynthesis in cell cultures (HEP G2 cells), incorporation of 14C-sodium acetate in cholesterol; format: cell-based; conditions: for IC50: Homo sapiens, HepG2, sodium salts, test compounds corrected by deviation of mevinolin sodium from its mean value, read-out: IC50 (concentration necessary for a 50% inhibition); for Relative potency in %: mevinolin sodium = 100, from IC50
# Experimental: 2) Inhibition of cholesterol biosynthesis in cell cultures (EEP G2 cells)
# Determination of the inhibition of the incorporation of ^14 C-sodium acetate in cholesterol
# Monolayers of HEP G2 cells in lipoprotein-free medium were preincubated with various concentrations of the sodium salts of the dihydroxycarboxylic acids of the formula II for 1 hour. After adding ^14 C-labeled sodium acetate, the incubation was continued for 3 hours. Tritium-labeled cholesterol was added as an internal standard and an aliquot of the cells was subjected to alkaline hydrolysis. The lipids were extracted using chloroform/methanol 2: 1. After adding carrier cholesterol, the lipid mixture was preparatively separated on TLC plates using chloroform/acetone 9: 1. The cholesterol zone was made visible by staining with iodine vapor, additionally detected using a TLC radio scanner and then scraped off. The amount of ^14 C-cholesterol formed was determined scintigraphically and related to mg of cell protein. The same procedure was carried out with cells from the Bame culture without preincubation with a test compound (so-called "solvent control"). The potency of the test compounds was determined by comparison of the biosynthesized ^14 C-cholesterol in test runs and in "solvent control".
# HMG-CoA reductase = molecular target: T1, HMG-CoA reductase (Rattus norvegicus, UniProt P51639); assay: Inhibition of HMG-CoA reductase activity in solubilized enzyme preparations from rat liver microsomes; format: biochemical; conditions: sodium salts of the dihydroxycarboxylic acids; mean of 3 parallel samples; read-out: IC50 (molar concentration necessary for a 50% inhibition)
# T1 construct: solubilized enzyme preparations from liver microsomes of rats; from tissue; host or cells: rat liver microsomes (cholestyramine-induced rats), solubilized
# T1 sequence (P51639 1-887): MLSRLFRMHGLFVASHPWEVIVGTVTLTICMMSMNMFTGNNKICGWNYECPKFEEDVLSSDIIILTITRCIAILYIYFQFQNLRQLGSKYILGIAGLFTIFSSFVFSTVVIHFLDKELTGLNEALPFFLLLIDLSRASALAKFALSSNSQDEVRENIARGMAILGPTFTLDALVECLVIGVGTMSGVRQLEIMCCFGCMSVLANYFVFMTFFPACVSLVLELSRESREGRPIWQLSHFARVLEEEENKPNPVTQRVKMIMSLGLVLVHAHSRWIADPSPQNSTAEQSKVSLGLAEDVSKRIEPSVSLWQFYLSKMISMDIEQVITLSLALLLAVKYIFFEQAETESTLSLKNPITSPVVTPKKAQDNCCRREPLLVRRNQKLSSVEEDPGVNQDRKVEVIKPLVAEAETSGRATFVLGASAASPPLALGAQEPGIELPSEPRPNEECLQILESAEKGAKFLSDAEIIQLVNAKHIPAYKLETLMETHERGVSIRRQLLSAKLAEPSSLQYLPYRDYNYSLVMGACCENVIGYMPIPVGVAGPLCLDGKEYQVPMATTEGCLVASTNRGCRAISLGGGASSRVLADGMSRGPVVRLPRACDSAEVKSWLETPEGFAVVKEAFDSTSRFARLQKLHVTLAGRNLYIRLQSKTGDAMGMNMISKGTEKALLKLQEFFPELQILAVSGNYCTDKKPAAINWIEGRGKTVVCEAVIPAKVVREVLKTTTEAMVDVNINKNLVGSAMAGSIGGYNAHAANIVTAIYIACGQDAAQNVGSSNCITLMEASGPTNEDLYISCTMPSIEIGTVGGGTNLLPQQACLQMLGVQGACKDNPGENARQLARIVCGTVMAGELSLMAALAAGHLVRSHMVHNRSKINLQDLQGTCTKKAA
# Experimental: 1) Inhibition of HKG-CoA reductase activity in solubilized enzyme preparations from rat liver microsomes
# HMG-CoA reductase activity was measured on solubilized enzyme preparations from liver microsomes of rats which had been induced by conversion into the day/night rhythm using cholestyramine (®Cuemid). (S,R)^14 C-HMG-CoA was used as a substrate, and the concentration of NADPH was maintained during the incubation by a regenerating system. The separation of ^14 C-mevalonate from substrate and other products (for example ^14 C-HMG) was carried out by column elution, the elution profile of each individual sample being determined. The regular addition of ^3 H-mevalonate was avoided as the determination gives the data relative to the inhibitory action. The enzyme-free control, the enzyme-containing normal mixture (=100%) and those containing preparation additives were in each case treated together in one series of experiments. The sodium salts of the dihydroxycarboxylic acids of the formula II were always employed as the preparation in this test. Each individual value was formed as the mean value of 3 parallel samples. The significance of the mean value differences between preparation-free and preparation-containing samples was evaluated by the t-test.
# [1] = tested on: microsomal lipid peroxidation; assay: Inhibition of microsomal lipid peroxidation (in vitro); format: biochemical
# Experimental: 5) Inhibition of microsomal lipid peroxidation (in vitro)
# The inhibition of lipid peroxidation was measured under the experimental conditions described by H. Wafers and H. Sies, Eur. J. Biochem. 174, 353-357 (1988). The microsomes were obtained according to the literature cited therein. IC50 denotes the concentration of the test compound in moles per liter which causes a 50% inhibition of lipid peroxidation.
# serum lipoproteins = assay: Action on serum lipoproteins and other metabolic parameters of male rats in the subchronic test; format: in vivo; conditions: rat; for Body weight, % changes in the mean value relative to starting / Food consumption, % changes in the mean value relative to control / Glycerol VLDL, % change compared to control / Liver weight, % changes in the mean value relative to control / Protein LDL, % change compared to control / Protein VLDL, % change compared to control / Total cholesterol HDL, % change compared to control / Total cholesterol LDL, % change compared to control / Total cholesterol VLDL, % change compared to control: 7 administrations; for Cholesterol HDL/LDL: control standardization to 1.00
# Experimental: 3) Action on serum lipoproteins and other metabolic parameters of male rats in the subchronic test
# Groups of male rats of the strain HOE: WISKf (SPF 71) having a starting weight of above 180 g received the test preparations daily in the morning (sodium salts of the dihydroxycarboxylic acids of the formula II) in polyethylene glycol 400 by stomach tube; the respective control group received only the vehicle. The last (7th) administration was carried out 24 hours before taking blood and sacrificing. There was free access to food and water during the experiment. 24 hours before taking blood, which wall carried out retroorbitally under slight ether anesthesia before and after the treatment period (i.e. on the 1st and 8th day), the food was withdrawn. Total cholesterol was determined in the serum of each individual animal [CHODPAP high performance method of Boehringer Mannheim], and, as a measure of the triglycerides, total glycerol was also determined analytically from the serum pool of all the animals of one group [GPO-PAP high performance method, Boehringer Mannheim].
# Immediately after taking blood, the animals were sacrificed by dislocation of the spine, and the relative liver weight, the change in body weight and the food consumption were determined.
# For the analysis of the serum lipoproteins, the serum of all the rats of one group was pooled. The serum lipoproteins were separated using the preparative ultracentrifuge.
# The following conditions were used for the separation of the fractions VLDL, LDL and HDL:
# The determination of the protein was carried out by the method of Lowry et al. [LOWRY O. H., ROSEBOROUGH, N.J., PARR, A. L. and RANDELL, R. J.: J. Biol. Chem. 193, 265 (1951)].
# LDL = assay: Inhibition of Cu2+-catalyzed LDL oxidation in vitro; format: biochemical, porcine; conditions: 5 μM Cu2+, 2 hours at 37° C.
# Experimental: 6) Inhibition of Cu^2+ -catalyzed LDL oxidation in vitro LDL was isolated from porcine plasma which contained EDTA (1 mg/ml) by ultracentrifugation in salt solutions of NaCl/NaBr between the densities 1.019 and 1.063 g/ml (cf. R. J. Havel et al., J. Clin. Invest. 43, 1345 (1955)). LDL was then dialyzed against phosphate-buffered saline (160 mM NaCl, 10 mM NaH2 PO4), pH 7.4 and stored under nitrogen at 4° C. Before the oxidation process, the LDL fractions were diluted to a final protein concentration of 0.1 mg/ml using phosphate-buffered saline and 2.5 ml aliquot parts were pre-incubated under nitrogen with the test compounds (25 μl of ethanolic solution) for 1 hour at 37° C. (cf. McLean et al., Biochemistry 1989, 28, 321). For the Cu^2+ -catalyzed oxidation of LDL, 12.5 μl of a 1 mM CuSO4 solution were added to each sample, a 5 μM Cu^2+ concentration resulting. The incubation was carried out for 2 hours at 37° C. and in an air atmosphere. The fluorescence intensity was measured at 430 nm (excitation wavelength 365 nm) (cf. Steinbrecher, U. P., J. Biol. Chem. 1987, 262, 3603). […] In addition, the inhibition using a 10^-5 N concentration of the test compound is indicated in %.
# [2] = 100 mg/kg daily by stomach tube
smiles,measurement,setting,value
O=C(O)C[C@H](O)C[C@H](O)COc1c(-c2ccc(F)cc2)cc(Sc2ccc(F)cc2)cc1C1CC1 [Example 2],IC50,HEP G2 cells,2.2 nM
same,Relative potency in %,HEP G2 cells,2273%
same,IC50,HMG-CoA reductase,2 nM
same,Inhibition at 10^-5 mol/l,[1],< 10%
Cc1cc(-c2cc(Sc3ccc(F)cc3)cc(C(C)C)c2OC[C@@H](O)C[C@@H](O)CC(=O)O)ccc1F [Example 3],IC50,HEP G2 cells,3.8 nM
same,Relative potency in %,HEP G2 cells,1316%
same,IC50,HMG-CoA reductase,4 nM
CC(C)c1cc(Sc2ccccc2)cc(-c2ccc(F)cc2)c1OC[C@@H](O)C[C@@H](O)CC(=O)O [Example 4],IC50,HEP G2 cells,8 nM
same,Relative potency in %,HEP G2 cells,625%
same,IC50,HMG-CoA reductase,8 nM
"CC(C)Sc1cc(-c2ccc(F)cc2)c(OC[C@@H](O)C[C@@H](O)CC(=O)O)c(C(C)C)c1 [Example 5, Sodium 3(R),S(S)-dihydroxy-6-[(2-p-fluorophenyl-4-isopropylthio-6-isopropyl)phenoxy]hexanoate]",IC50,HEP G2 cells,9.2 nM
same,Relative potency in %,HEP G2 cells,543%
same,IC50,HMG-CoA reductase,8 nM
same,Inhibition at 10^-5 mol/l,[1],0%
"CC(C)c1cc(SC(C)(C)Sc2cc(-c3ccc(F)cc3)c(OC[C@@H](O)C[C@@H](O)CC(=O)O)c(C(C)C)c2)cc(-c2ccc(F)cc2)c1O [Example 6, Sodium 3(R),5(S)-dihydroxy-6-(2-isopropyl-4-[(3-isopropyl-4-sodio-oxy-5-p-fluorophenyl-l-phenylthio)-2-propyl-2-thio]-6-p-fluorophenylphenoxy)hexanoate]",IC50,HEP G2 cells,1700 nM
same,Relative potency in %,HEP G2 cells,3%
same,"Body weight, % changes in the mean value relative to starting",serum lipoproteins; 30 mg/kg daily by stomach tube,+5%
same,"Food consumption, % changes in the mean value relative to control",serum lipoproteins; 30 mg/kg daily by stomach tube,-1%
same,"Glycerol VLDL, % change compared to control",serum lipoproteins; 30 mg/kg daily by stomach tube,+8%
same,"Liver weight, % changes in the mean value relative to control",serum lipoproteins; 30 mg/kg daily by stomach tube,+3%
same,"Protein LDL, % change compared to control",serum lipoproteins; 30 mg/kg daily by stomach tube,-24%
same,"Protein VLDL, % change compared to control",serum lipoproteins; 30 mg/kg daily by stomach tube,-4%
same,"Total cholesterol HDL, % change compared to control",serum lipoproteins; 30 mg/kg daily by stomach tube,+13%
same,"Total cholesterol LDL, % change compared to control",serum lipoproteins; 30 mg/kg daily by stomach tube,-26%
same,"Total cholesterol VLDL, % change compared to control",serum lipoproteins; 30 mg/kg daily by stomach tube,+12%
same,Cholesterol HDL/LDL,serum lipoproteins; 30 mg/kg daily,1.27
same,"Body weight, % changes in the mean value relative to starting",serum lipoproteins; [2],+5%
same,"Food consumption, % changes in the mean value relative to control",serum lipoproteins; [2],-1%
same,"Glycerol VLDL, % change compared to control",serum lipoproteins; [2],-8%
same,"Liver weight, % changes in the mean value relative to control",serum lipoproteins; [2],+1%
same,"Protein LDL, % change compared to control",serum lipoproteins; [2],+3%
same,"Protein VLDL, % change compared to control",serum lipoproteins; [2],-2%
same,"Total cholesterol HDL, % change compared to control",serum lipoproteins; [2],-3%
same,"Total cholesterol LDL, % change compared to control",serum lipoproteins; [2],-16%
same,"Total cholesterol VLDL, % change compared to control",serum lipoproteins; [2],+13%
same,Cholesterol HDL/LDL,serum lipoproteins; 100 mg/kg daily,1.15
same,IC50,HMG-CoA reductase,3 nM
same,Inhibition at 10^-5 mol/l,[1],98%
same,IC50,"[1]; microsomes, read-out: IC50 (50% inhibition of lipid peroxidation)",2700 nM
"CC(C)c1cc(SC(C)(C)Sc2cc(-c3ccc(F)cc3)c(OC[C@@H](O)C[C@@H](O)CC(=O)O)c(C(C)C)c2)cc(-c2ccc(F)cc2)c1OC[C@@H](O)C[C@@H](O)CC(=O)O [Example 7, 4,4-(Isopropylidenedithio)-bis-<{1-[(2S,4R)-dihydroxy-5-sodiocarboxy]pentoxy-2-isopropyl-6-p-fluorophenyl}benzene>]",IC50,HEP G2 cells,920 nM
same,Relative potency in %,HEP G2 cells,5%
same,"Body weight, % changes in the mean value relative to starting",serum lipoproteins; [2],+5%
same,"Glycerol VLDL, % change compared to control",serum lipoproteins; [2],-3%
same,"Liver weight, % changes in the mean value relative to control",serum lipoproteins; [2],-1%
same,"Protein LDL, % change compared to control",serum lipoproteins; [2],-8%
same,"Protein VLDL, % change compared to control",serum lipoproteins; [2],-15%
same,"Total cholesterol HDL, % change compared to control",serum lipoproteins; [2],+9%
same,"Total cholesterol LDL, % change compared to control",serum lipoproteins; [2],-52%
same,"Total cholesterol VLDL, % change compared to control",serum lipoproteins; [2],-23%
same,Cholesterol HDL/LDL,serum lipoproteins; 100 mg/kg daily,2.25
same,IC50,HMG-CoA reductase,1 nM
same,Inhibition at 10^-5 mol/l,[1],< 10%
"CC(C)c1cc(Sc2ccc(F)cc2)cc(-c2ccc(F)cc2)c1OC[C@@H]1C[C@@H](O)CC(=O)O1 [Example 10, 4(R)-Hydroxy-6(S)-[(2-p-fluorophenyl-4-p-fluorophenylthio-6-isopropyl)phenoxymethyl]-3,4,5,6-tetrahydro-2H-pyran-2-one]",IC50,"LDL; fluorescence 430 nm, read-out: IC50 (50% inhibition of LDL oxidation)",> 10000 nM
same,Inhibition at 10^-5 M,LDL; 10^-5 M,23%
